Test results from publication PMC8403083 (OncoTargets and therapy, 2021).

What was measured:
CD73 = biological target: T1, CD73 (Mus musculus, UniProt Q61503); test: CMP hydrolysis by EMT6 cells, Malachite green phosphate detection; assay type: cell-based
T1 sequence (Q61503 29-551): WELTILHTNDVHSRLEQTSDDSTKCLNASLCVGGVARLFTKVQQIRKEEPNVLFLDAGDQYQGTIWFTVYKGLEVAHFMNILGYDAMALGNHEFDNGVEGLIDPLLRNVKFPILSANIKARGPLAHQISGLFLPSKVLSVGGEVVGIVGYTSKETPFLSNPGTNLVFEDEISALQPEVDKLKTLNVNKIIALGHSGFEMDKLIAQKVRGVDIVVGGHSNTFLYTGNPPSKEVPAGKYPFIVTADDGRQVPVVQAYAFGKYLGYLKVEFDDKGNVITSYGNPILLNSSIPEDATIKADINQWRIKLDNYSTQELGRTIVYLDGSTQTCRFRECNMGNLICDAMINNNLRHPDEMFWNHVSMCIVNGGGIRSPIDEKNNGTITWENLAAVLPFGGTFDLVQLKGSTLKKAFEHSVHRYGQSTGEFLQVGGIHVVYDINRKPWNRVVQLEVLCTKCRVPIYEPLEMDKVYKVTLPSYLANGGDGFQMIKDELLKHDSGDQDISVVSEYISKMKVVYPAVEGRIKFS

CD73 (5ʹ-Nucleotidase) = biological target: T2, CD73 (5ʹ-Nucleotidase) (Homo sapiens, UniProt P21589); test: Malachite green phosphate assay, CMP substrate, […] h preincubation; assay type: biochemical
T2 sequence (P21589 27-547): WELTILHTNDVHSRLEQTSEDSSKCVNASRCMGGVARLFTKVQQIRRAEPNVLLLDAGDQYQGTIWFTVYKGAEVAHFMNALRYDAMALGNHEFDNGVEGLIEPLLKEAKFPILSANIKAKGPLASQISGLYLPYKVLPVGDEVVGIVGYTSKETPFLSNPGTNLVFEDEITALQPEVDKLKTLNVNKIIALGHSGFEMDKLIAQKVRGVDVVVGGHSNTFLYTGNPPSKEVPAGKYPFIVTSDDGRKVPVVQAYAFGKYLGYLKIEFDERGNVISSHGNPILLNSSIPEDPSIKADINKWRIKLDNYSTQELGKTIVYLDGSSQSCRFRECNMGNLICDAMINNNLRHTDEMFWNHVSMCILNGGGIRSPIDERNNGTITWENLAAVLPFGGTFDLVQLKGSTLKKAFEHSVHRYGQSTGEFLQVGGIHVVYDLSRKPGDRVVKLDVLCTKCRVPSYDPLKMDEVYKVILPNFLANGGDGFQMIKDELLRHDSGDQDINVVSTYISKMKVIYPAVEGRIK

| SMILES | IC50 (CD73) [nM] | IC50 (CD73 (5ʹ-Nucleotidase)) [nM] |
| --- | --- | --- |
| Nc1ncnc2c1ncn2[C@@H]1O[C@H](COP(=O)(O)CP(=O)(O)O)[C@@H](O)[C@H]1O [AMPCP] | 130 ± 8 | 3.8 ± 0.8 |
| O=P(O)(O)COC[C@H]1O[C@@H](n2ncc3c(N4CC5(CCc6ccccc65)C4)nc(Cl)nc32)[C@H](O)[C@@H]1O [SHR170008, ((((2R,3S,4R,5R)-5-(6-chloro-4-(2ʹ,3ʹ-dihydrospiro[azetidine-3,1ʹ-inden]-1-yl)-1H-pyrazolo[3,4-d]pyrimidin-1-yl)-3,4-dihydroxytetrahydrofuran-2-yl)methoxy)methyl) phosphonic acid] | 0.133 ± 0.008 | – |
